Data from PubChem BioAssay (NCI).
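Values below derive from 48-hour exposures of cells grown in 96-well plates, with endpoints linearly interpolated between the two concentrations bracketing the appropriate inhibition level. TGI: total growth inhibition.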

Legend:
Test in all cases: NCI anticancer screen, dose series, 48 h
EKVX NSCLC = tested on: EKVX NSCLC
PC-3 prostate = tested on: PC-3 prostate
HL-60(TB) leukemia = tested on: HL-60(TB) leukemia
MOLT-4 leukemia = tested on: MOLT-4 leukemia
SK-MEL-2 melanoma = tested on: SK-MEL-2 melanoma
UO-31 renal = tested on: UO-31 renal
UACC-257 melanoma = tested on: UACC-257 melanoma
M14 melanoma = tested on: M14 melanoma
SK-OV-3 ovarian = tested on: SK-OV-3 ovarian
RPMI-8226 leukemia = tested on: RPMI-8226 leukemia

| Structure (SMILES) | TGI (EKVX NSCLC) | TGI (PC-3 prostate) | TGI (HL-60(TB) leukemia) | TGI (MOLT-4 leukemia) | TGI (SK-MEL-2 melanoma) | TGI (UO-31 renal) | TGI (UACC-257 melanoma) | TGI (M14 melanoma) | TGI (SK-OV-3 ovarian) | TGI (RPMI-8226 leukemia) |
| --- | --- | --- | --- | --- | --- | --- | --- | --- | --- | --- |
| CC1(C)C(=O)/C(=C/c2ccccc2)C(C)(C)C1(C)C | > 100 µM | > 100 µM | 46.7 µM | > 100 µM | > 100 µM | > 100 µM | > 100 µM | > 100 µM | > 100 µM | > 100 µM |
| C/C(=N/NC(=S)Nc1ccc(C)cc1)c1ccccn1 | 5.12 µM | 13.7 µM | 0.608 µM | 2.53 µM | 13.9 µM | 12.6 µM | 0.802 µM | 2.37 µM | 17 µM | 25.7 µM |
| COc1ccc(C2C(=O)c3ccc(OC)cc3OC2c2cccnc2)cc1 (stereo not given) | > 100 µM | > 100 µM | > 100 µM | > 100 µM | > 100 µM | > 100 µM | > 100 µM | > 100 µM | > 100 µM | > 100 µM |
| COc1ccc(C(=CCC(C)C2CCC3[C@@H]4C(OC(C)=O)CC5CC(OC(C)=O)CC[C@]5(C)C4CC(OC(C)=O)[C@]23C)c2ccc(OC)cc2)cc1 (stereo not given in full) | > 100 µM | > 100 µM | 45.3 µM | > 100 µM |  | > 100 µM | > 100 µM | > 100 µM | > 100 µM | > 100 µM |
| CC1=NC(=N)N=C(C)C1N=Nc1ccc2nc(C)[nH]c2c1 (stereo not given) | > 100 µM | > 100 µM | > 100 µM | > 100 µM | > 100 µM |  | > 100 µM | > 100 µM | > 100 µM | > 100 µM |
| CC(=O)O[C@H]1CC[C@@H](OC(C)=O)[C@H]2[C@H](O)[C@H](O)[C@@H]1n1c(=O)n(-c3ccccc3)c(=O)n12 | > 100 µM | > 100 µM | > 100 µM | > 100 µM | > 100 µM | > 100 µM | > 100 µM | > 100 µM |  | > 100 µM |
| O=C(OCCN=c1c2ccccc2ccc2ccccc12)c1cc([N+](=O)[O-])cc([N+](=O)[O-])c1 | > 100 µM | > 100 µM | > 100 µM | > 100 µM | > 100 µM | > 100 µM | > 100 µM | > 100 µM | > 100 µM | > 100 µM |
| Cc1cc2nc(N3C(=O)/C(=C/Cc4ccco4)N=C3c3ccccc3)sc2cc1C | > 100 µM | 54 µM | 46.1 µM | > 100 µM | > 100 µM | > 100 µM | > 100 µM | > 100 µM | > 100 µM | > 100 µM |
| CC(=O)C1(C(=O)C(=[N+]=[N-])S(=O)(=O)c2ccccc2)CC1 | > 100 µM | > 100 µM | > 100 µM | > 100 µM | > 100 µM | > 100 µM | > 100 µM | > 100 µM |  | > 100 µM |
| Cc1ccc(S(=O)(=O)N/N=c2/sc3ccccc3n2C)cc1 | > 100 µM | > 100 µM | > 100 µM | > 100 µM | > 100 µM | > 100 µM | > 100 µM |  | > 100 µM | > 100 µM |
| O=C1/C(=C\c2cccc(Oc3ccccc3)c2)SC(c2ccccc2)N1c1cc(Cl)ccc1Cl (stereo not given) | > 100 µM | > 100 µM | 48.1 µM | > 100 µM | > 100 µM | > 100 µM | > 100 µM | 84.4 µM | > 100 µM | 98.7 µM |
